Assay results: article PMC2790922 (Molecular pharmaceutics, 2009)

How the values were obtained:
[1] = target: T1, human recombinant active MMP-2 (Homo sapiens, UniProt P08253); test: Cleavage of peptides by purified active MMP-2; type: biochemical; details: 10 µM GM6001; 9 nM active MMP-2; 37°C, 2 h; FAM fluorescence
T1 sequence (P08253 110-660): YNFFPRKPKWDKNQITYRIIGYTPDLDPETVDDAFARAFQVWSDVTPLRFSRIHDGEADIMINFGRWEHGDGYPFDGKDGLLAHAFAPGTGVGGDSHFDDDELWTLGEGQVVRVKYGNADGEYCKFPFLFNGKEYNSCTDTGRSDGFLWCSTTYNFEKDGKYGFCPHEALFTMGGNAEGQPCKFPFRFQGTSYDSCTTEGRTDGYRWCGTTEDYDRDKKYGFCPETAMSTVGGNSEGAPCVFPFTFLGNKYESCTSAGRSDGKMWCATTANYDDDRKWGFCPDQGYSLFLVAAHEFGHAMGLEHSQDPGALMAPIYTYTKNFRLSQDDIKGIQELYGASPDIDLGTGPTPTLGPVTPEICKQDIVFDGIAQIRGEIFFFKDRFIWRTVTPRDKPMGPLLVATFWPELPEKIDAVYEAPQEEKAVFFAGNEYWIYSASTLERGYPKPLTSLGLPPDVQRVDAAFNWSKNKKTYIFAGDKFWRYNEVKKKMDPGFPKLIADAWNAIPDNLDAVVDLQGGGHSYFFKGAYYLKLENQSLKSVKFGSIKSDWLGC

[2] = test system: MMP-2 from HUVECs; test: Peptide cleavage by MMP-2 in PMA-treated HUVECs culture; type: cell-based, human; details: 25 µM GM6001, 30 min pre-treatment; 10 µM MMP-RGD; 24 h; p = 0.041

inhibition of cleavage of MMP-RGD and MMP-control by purified MMP-2 [1]: inhibited
Structure (SMILES): CNC(=O)[C@H](Cc1c[nH]c2ccccc12)NC(=O)[C@@H](CC(=O)NO)CC(C)C [GM6001]
inhibition of cleavage of MMP-RGD by PMA-treated HUVECs [2]: inhibited
